Where “and” joins values, the source holds several entries; their conditions need not be identical. Equal entries are not always repeated.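 The compound was tested at five concentrations on cells cultured in 96-well plates, with a 48-hour exposure period. GI50: concentration for 50% inhibition of growth. The concentration for full growth arrest is given as TGI.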

Some test systems named below: HS 578T breast; UO-31 renal; SK-MEL-5 melanoma; MALME-3M melanoma; A498 renal; OVCAR-5 ovarian; MDA-MB-231 breast; MOLT-4 leukemia; UACC-62 melanoma; CAKI-1 renal.
Common to all, as to test: inhibition of tumour cell growth, NCI panel, 48 h

For the molecule `N=C(N)/N=C(\N)c1c(-c2cc(O)ccc2O)nc2sccn12`, the GI50 is above 100 µM in the assay on HS 578T breast; 22.3 µM with UO-31 renal; above 100 µM in the assay with SK-MEL-5 melanoma; 15.9 µM in the assay with MALME-3M melanoma; above 100 µM in the assay with A498 renal; 18.3 µM in the assay on OVCAR-5 ovarian. The GI50 with MDA-MB-231 breast was 18.9 µM; in the assay on MOLT-4 leukemia, 29.4 µM; with UACC-62 melanoma, 44.6 µM; in the assay with CAKI-1 renal, 20.1 µM. For the same molecule, the TGI with HS 578T breast was above 100 µM; in the assay on UO-31 renal, 47.9 µM; with SK-MEL-5 melanoma it was above 100 µM; with MALME-3M melanoma, 35.4 µM; in the assay with A498 renal, above 100 µM; with OVCAR-5 ovarian it was 33.1 µM. In addition, the TGI in the assay on MDA-MB-231 breast was 39.8 µM; in the assay on MOLT-4 leukemia, above 100 µM; in the assay on UACC-62 melanoma it was above 100 µM; in the assay on CAKI-1 renal, 39.3 µM.
As for `CNC1C(O)C(OC2C(N)CC(N)C(OC3OC(CN)=CCC3N)C2O)OCC1(C)O` (stereo not given), the TGI with HS 578T breast, in the assay with UO-31 renal, with SK-MEL-5 melanoma, in the assay with MALME-3M melanoma, in the assay on A498 renal and in the assay with OVCAR-5 ovarian was above 100 µM throughout. Moreover, the TGI in the assay on MDA-MB-231 breast, in the assay with MOLT-4 leukemia, in the assay with UACC-62 melanoma and in the assay on CAKI-1 renal was above 100 µM each time.
For `CCCCCCCCCCCCNC(=O)[C@H]1CSC(c2cc3ccccc3s2)N1` (stereo not given in full), the GI50 with HS 578T breast is 0.777 µM; in the assay on UO-31 renal it was 4.16 µM; in the assay with SK-MEL-5 melanoma it was 4.34 µM; with MALME-3M melanoma, 5.75 µM; in the assay with A498 renal it was 10.2 µM; in the assay on OVCAR-5 ovarian it was 4.16 µM. In addition, the GI50 in the assay on MDA-MB-231 breast was 0.706 µM; in the assay on MOLT-4 leukemia it was 0.657 µM; in the assay with UACC-62 melanoma, 1.15 µM; in the assay with CAKI-1 renal it was 2.09 µM. Moreover, the TGI in the assay on HS 578T breast was 1.86 µM; in the assay on UO-31 renal, 8.37 µM; with SK-MEL-5 melanoma, 8.72 µM; in the assay with MALME-3M melanoma it was 10.9 µM; in the assay with A498 renal, 26.3 µM; with OVCAR-5 ovarian it was 8.53 µM. The TGI was determined as 1.46 µM with MDA-MB-231 breast, 1.37 µM in the assay with MOLT-4 leukemia, 4.28 µM with UACC-62 melanoma and 6.4 µM in the assay on CAKI-1 renal.
For the molecule `COC(=O)[C@@]1(Cc2ccccc2)[C@H]2c3cc(C(=O)N4CCCC4)n(Cc4ccc(OC)c(OC)c4)c3C[C@H]2CN1C(=O)c1ccccc1`, the GI50 with HS 578T breast is 6.56 µM; with UO-31 renal, 8.5 µM; with SK-MEL-5 melanoma it was 7.71 µM; in the assay on MALME-3M melanoma it was 10.4 µM; in the assay with A498 renal it was 10.4 µM; with OVCAR-5 ovarian, 9.19 µM. Besides, the GI50 is 8.17 µM in the assay on MDA-MB-231 breast, 7.94 µM in the assay on MOLT-4 leukemia, 7.49 µM in the assay on UACC-62 melanoma and 14 µM with CAKI-1 renal. In addition, the TGI in the assay with HS 578T breast was 19.4 µM; in the assay with UO-31 renal, 17.3 µM; in the assay with SK-MEL-5 melanoma it was 14.4 µM; in the assay with MALME-3M melanoma it was 21 µM; in the assay on A498 renal, 19.2 µM; with OVCAR-5 ovarian it was 21.8 µM. Moreover, the TGI with MDA-MB-231 breast was 21.4 µM; with MOLT-4 leukemia it was 32.8 µM; with UACC-62 melanoma it was 15.8 µM; in the assay on CAKI-1 renal, above 50 µM.
With `CN1CCC(CNc2ccc3ncc(-c4cccc(OC(F)(F)F)c4)n3n2)CC1`, the GI50 in the assay with HS 578T breast was 1.66 µM and 1.63 µM; in the assay with UO-31 renal, 1.16 µM and 1.24 µM; with SK-MEL-5 melanoma, 1.47 µM and 1.51 µM; in the assay with MALME-3M melanoma, 1.64 µM and 1.65 µM; with A498 renal it was 0.869 µM and 1.58 µM; in the assay with OVCAR-5 ovarian, 2.68 µM and 2.95 µM. The GI50 in the assay on MDA-MB-231 breast was 1.62 µM and 1.26 µM; in the assay with MOLT-4 leukemia it was 2.12 µM and 1.45 µM; in the assay with UACC-62 melanoma, 1.76 µM; in the assay on CAKI-1 renal it was 1.47 µM and 1.83 µM. The TGI in the assay on HS 578T breast is 4.5 µM and 7.17 µM; in the assay with UO-31 renal it was 2.59 µM and 3.04 µM; with SK-MEL-5 melanoma, 2.82 µM and 2.85 µM; with MALME-3M melanoma it was 3.25 µM and 3.23 µM; in the assay with A498 renal, 3.28 µM and 7.47 µM; with OVCAR-5 ovarian it was 8.32 µM and > 10 µM. Further, the TGI in the assay on MDA-MB-231 breast was 3.65 µM and 2.77 µM; with MOLT-4 leukemia, 9.15 µM and 5.73 µM; in the assay with UACC-62 melanoma it was 3.66 µM; in the assay with CAKI-1 renal it was 3.57 µM and > 10 µM.
As for `O=C(CCCCCCCn1cc(-c2cccnc2)nn1)Nc1ccccc1-c1ccccc1`, the GI50 with HS 578T breast was 7.22 µM; in the assay with UO-31 renal, 5.24 µM; with SK-MEL-5 melanoma, 2.25 µM; in the assay with MALME-3M melanoma it was 5.71 µM; in the assay with A498 renal, 13.7 µM; in the assay on OVCAR-5 ovarian it was 0.422 µM. Moreover, the GI50 in the assay on MDA-MB-231 breast was 21.3 µM; in the assay on MOLT-4 leukemia it was 2.31 µM; in the assay on UACC-62 melanoma it was 9.68 µM; with CAKI-1 renal it was 1.29 µM. The TGI is above 100 µM in the assay with HS 578T breast; 47 µM in the assay with UO-31 renal; 15.1 µM in the assay on SK-MEL-5 melanoma; 41.8 µM with MALME-3M melanoma; above 86.1 µM with A498 renal; above 100 µM with OVCAR-5 ovarian. The TGI with MDA-MB-231 breast is above 100 µM; with MOLT-4 leukemia, 23.4 µM; in the assay on UACC-62 melanoma, 47.3 µM; in the assay on CAKI-1 renal, above 58.4 µM.
Take `CCCOc1ccc(-c2nc(-c3ccc(N=Cc4ccc(N(CCOS(C)(=O)=O)CCOS(C)(=O)=O)cc4C)cc3)cs2)cc1`: the TGI in the assay with HS 578T breast was above 90.9 µM; in the assay on UO-31 renal, 48 µM; in the assay with SK-MEL-5 melanoma, above 71.3 µM; in the assay on MALME-3M melanoma it was above 95.6 µM; with A498 renal, 24.2 µM; in the assay with OVCAR-5 ovarian it was above 71.7 µM. Besides, the TGI with MDA-MB-231 breast is 86 µM; in the assay on MOLT-4 leukemia it was 66.6 µM; in the assay on UACC-62 melanoma, above 69.6 µM; in the assay on CAKI-1 renal, 12.8 µM.
As for `CC1=CC(=O)CC(C)(C)C1(O)/C=C/C(C)=C/C(=O)O` (stereo not given), the TGI in the assay on HS 578T breast, in the assay with UO-31 renal, with SK-MEL-5 melanoma, in the assay with MALME-3M melanoma, with A498 renal and in the assay with OVCAR-5 ovarian was above 100 µM in each case. Besides, the TGI with MDA-MB-231 breast, in the assay on MOLT-4 leukemia, with UACC-62 melanoma and in the assay with CAKI-1 renal was above 100 µM in each case.
As to `Sc1ccc2ccccc2c1CNCc1ccccc1`, the TGI with HS 578T breast amounted to 67.2 µM; in the assay with UO-31 renal, 26.9 µM; with SK-MEL-5 melanoma it was 25.3 µM; with MALME-3M melanoma it was 78.5 µM; in the assay with A498 renal, 95.5 µM; in the assay on OVCAR-5 ovarian, 34 µM. Moreover, the TGI came out at 43.9 µM in the assay with MDA-MB-231 breast, 6.59 µM in the assay on MOLT-4 leukemia, 28.6 µM in the assay on UACC-62 melanoma and 43.8 µM in the assay on CAKI-1 renal.

The values above are taken from PubChem BioAssay (NCI).
